US20110028420A1, “Regression of Established Atherosclerotic Plaques, and Treating Sudden-Onset Asthma Attacks, using PARP Inhibitors” (priority 2008, published 2011)
Marks after values point to notes of the source that are not given here.

What was measured:
MCP-1 = assay: Quantitative RT-PCR of MCP-1 in thoracic aorta; assay type: in vivo, mice; conditions: normalized versus β-actin
Excerpt: (§1) RNA was extracted from thoracic aortas, and cDNA was generated by standard methods. PCR Primers for MCP-1 and for actin were as described in C. Hans et al., “Thieno[2,3-c]isoquinolin-5-one (TIQ-A), a potent poly(ADP-ribose) polymerase inhibitor, promotes atherosclerotic plaque regression in high fat diet-fed ApoE-deficient mice: effects on inflammatory markers and lipid content,” J. Pharm. Exp. Ther., vol. 329, pp. 150-158 (2009, published online Jan. 5, 2009). Amplification, detection, and data analysis were performed with the iCycler real-time PCR system (Bio-Rad Laboratories, Hercules, Calif.).
Several pathways may play a role in the regression of plaques, including some that interfere with the recruitment and retention of monocytes, macrophages and foam cells, cells that appear to be required for the maintenance of advanced plaques. In particular, the continuing recruitment of macrophages into lesions is considered a major factor in maintaining the size and complexity of atherosclerotic plaques. […] To confirm that the decrease in CD68-positive cells was associated with reduced expression of chemotactic factors, we used quantitative RT-PCR to monitor the effect of TIQ-A on MCP-1 expression. We measured transcription of the MCP-1 gene in the thoracic aorta using primers specific for murine MCP-1. Measured values were normalized versus measured levels of transcription of the β-actin gene.

OVA-specific IgE = OVA-specific IgE in BAL fluid (sandwich ELISA); assay type: in vivo, mice; conditions: 24 hours post-challenge
Procedure: (§2) Mice were bred in a pathogen-free facility at the Louisiana State University Health Science Center (LSUHSC), New Orleans, La., and were given unlimited access to sterilized chow and water. Animal maintenance, experimental protocols, and procedures were approved by the LSUHSC Animal Care & Use Committee. C57BL/6 mice were purchased from Jackson Laboratories (Bar Harbor, Me.). Six-week old C57BL/6 mice (n z 5) were sensitized with two, 100 μg i.p. injections of Grade V chicken ovalbumin (OVA) (Sigma-Aldrich, St. Louis Mo.), mixed with 2 mg aluminum hydroxide in saline. The two injections were given seven days apart. One week after the second sensitization the mice were placed in a Plexiglas chamber and challenged with aerosolized ovalbumin (3% OVA in saline, generated by a Bennett nebulizer, DeVilbiss, Pa.). The challenged mice were held in the chamber with the aerosolized OVA for 30 min. […]
(§3) A final volume of 5 ml saline was used in BAL to assess inflammatory cells (48 hours post OVA-challenge), or 1 ml saline was used to assess cytokines or IgE (24 hours post OVA-challenge). […] Mucin was assessed essentially as described in L. Whittaker et al., Am. […] OVA-specific IgE was quantified by a sandwich ELISA (Serotec, Raleigh, N.C.) essentially as described in Oumona et al. (2006).

[1] = Fasted plasma cholesterol and LDL (Cholestech LDX); assay type: in vivo, mice; conditions: after overnight fasting; Group 6
Procedure: (§4) The high-fat diet (Harlan Teklad, Madison, Wis.) contained 21% fat by weight (0.15% cholesterol). The regular diet was normal laboratory rodent chow. Controls were given i.p. injections of vehicle three times per week, during the final four weeks. Experimental Groups received i.p. injections of the PARP inhibitor thieno[2,3-c]isoquinolin-5-one (TIQ-A) (Sigma-Aldrich, St Louis, Mo.) at the rate of 3 mg/kg, three times per week, during the last 4 weeks. At the conclusion of each protocol, the mice were fasted, anesthetized with ketamine/xylazine (60 and 3 mg/kg, respectively), and blood was drawn for serum preparation.
Plasma cholesterol and LDL were analyzed using a commercially available kit according to the manufacturer's instructions (Cholestech LDX, Hayward, Calif.).

CCR2 = assay: Expression of the MCP-1 receptor CCR2; assay type: in vivo; conditions: TIQ-A-treated mice
C57BL/6 mice [2] = assay: Eosinophil and inflammatory cell infiltration in lungs and BAL fluid of OVA-sensitized and challenged mice; assay type: in vivo
Procedure: (§5) Mice were bred in a pathogen-free facility at the Louisiana State University Health Science Center (LSUHSC), New Orleans, La., and were given unlimited access to sterilized chow and water. Animal maintenance, experimental protocols, and procedures were approved by the LSUHSC Animal Care & Use Committee. C57BL/6 mice were purchased from Jackson Laboratories (Bar Harbor, Me.). Six-week old C57BL/6 mice (n z 5) were sensitized with two, 100 μg i.p. injections of Grade V chicken ovalbumin (OVA) (Sigma-Aldrich, St. Louis Mo.), mixed with 2 mg aluminum hydroxide in saline. The two injections were given seven days apart. One week after the second sensitization the mice were placed in a Plexiglas chamber and challenged with aerosolized ovalbumin (3% OVA in saline, generated by a Bennett nebulizer, DeVilbiss, Pa.). The challenged mice were held in the chamber with the aerosolized OVA for 30 min. Additional groups of mice were treated by the same protocol, except that they received 6 mg/kg TIQ-A (i.p.) 2 hours prior to challenge, 1 hour post-challenge, or 6 hours post-challenge with OVA. Control groups were neither sensitized, nor challenged. The mice used in each experiment were from the same litter or the same family. Mice were allowed to recover, and then killed by CO2 asphyxiation after 24 or 48 hours. The sacrificed mice were subjected to bronchio-alveolar lavage (BAL), or their lung tissues were dissected, fixed, and processed for histological analysis.
(§6) A final volume of 5 ml saline was used in BAL to assess inflammatory cells (48 hours post OVA-challenge), or 1 ml saline was used to assess cytokines or IgE (24 hours post OVA-challenge). Formalin-fixed lungs were sectioned and subjected to haematoxylin and eosin (H&E), Periodic Acid-Schiff (PAS)-staining using standard protocols. Mucin was assessed essentially as described in L. Whittaker et al., Am. J. Respir. Cell. Mol. Biol., vol. 27, pp. 593-602 (2002). […] OVA-specific IgE was quantified by a sandwich ELISA (Serotec, Raleigh, N.C.) essentially as described in Oumona et al. (2006).

ICAM-1 = assay: Quantitative RT-PCR of ICAM-1 in thoracic aorta; assay type: in vivo; conditions: thoracic aortas of Group 6 mice
Excerpt: as §1
In addition to MCP-1, the recruitment and their retention of monocytes and macrophages within atherosclerotic plaques requires the expression of adhesion molecules by endothelial and intimal cells. In particular, the adhesion molecule ICAM-1 expression is expressed in the later stages of plaques.

C57BL/6 mice [3] = assay: Airway hyperresponsiveness: lung resistance to methacholine by forced oscillation; assay type: in vivo; conditions: TIQ-A post-OVA challenge; methacholine 50 mg/ml, 24 hours after OVA exposure
Procedure: as §5, with “The mice used in each experiment were from the same litter or the same family. Mice were allowed to recover, and then killed by CO2 asphyxiation after 24 or 48 hours. The sacrificed mice were subjected to bronchio-alveolar lavage (BAL), or their lung tissues were dissected, fixed, and processed for histological analysis.” left out
Twenty-four hours after OVA challenge lung resistance to increasing doses of methacholine (MeCh, Sigma; 0, 25, and 50 mg/ml in isotonic saline) was assessed by forced oscillation, essentially as described in D. You et al., Respir. […]

C57BL/6 mice [4] = assay: Mucus production in airways of OVA-challenged mice (PAS staining, histological mucin index); assay type: in vivo
Procedure: as §5, §6

TNF = assay: Quantitative RT-PCR of TNF; assay type: in vivo, mice; conditions: Group 6
C57BL/6 ApoE−/− mice [5] = assay: Atherosclerotic plaque size and number in aortas of high-fat-diet-fed ApoE−/− mice (en face Oil-Red-O staining); assay type: in vivo
Excerpt: (§7) C57BL/6 ApoE^−/− mice (Jackson Laboratory, Bar Harbor, Me.) were housed and bred in a pathogen-free animal care facility at LSUHSC (New Orleans, La.), and were given full access to laboratory rodent chow and water. Principles of laboratory animal care were followed (NIH publication No. 86-23, revised 1985). Experimental protocols were approved by the LSUHSC Animal Care and Use Committee. The animals were divided into six groups to provide proper controls, and to allow calculation of the significance of the results. All Groups were ApoE^−/− mice. The mice were fed a regular diet or a high fat diet for 12 or 16 weeks; in some cases mice that had been fed a high fat diet for 12 weeks were switched to a regular diet for the final 4 weeks (16 weeks total). Some mice were given injections of TIQ-A during the final four weeks, while others were injected with vehicle as controls:
as §4
(§8) Perfusion-fixed aortas were dissected and prepared either for en face, Oil-Red-O staining using standard protocols, or for embedding in paraffin. Tissues were sectioned and were stained following standard protocols with haematoxylin and eosin (H&E), trichrome staining, or immunohistochemistry (IHC). Lesion areas were assessed as described in K. Oumona-Benachour et al. (2007). IHC used antibodies against murine smooth muscle actin (SMA) (Santa Cruz Biotechnologies, Santa Cruz, Calif.), or antibodies against CD68. Immunoreactivity was assessed in captured images of immunostained stained sections as described in K. Oumona-Benachour et al. (2007).

C57BL/6 ApoE−/− mice [6] = assay: Histology, trichrome staining and immunohistochemistry (SMA, CD68, MCP-1) of atherosclerotic plaques; assay type: in vivo
Excerpt: as §7, §4, §8

IL-4, IL-5 and IL-13 = assay: Th2 cytokines in BAL fluid of OVA-challenged mice (Bio-Rad Bioplex); assay type: in vivo; conditions: BAL 24 hours after challenge; TIQ-A after versus before OVA challenge
Procedure: as §2, §3

mice [7] = conditions: administration prior to allergen challenge; cited from earlier work
rat = conditions: cited from earlier work; for Anti-inflammatory effects in gut inflammation: post-injury administration; for Accumulation of poly (ADP-ribose) in ileum and colon: splanchnic artery occlusion-shocked rats, dinitrobenzene sulfonic acid-treated rats
PARP-2 = conditions: cited from earlier work
PARP1 = target: T1, PARP1 (Mus musculus, UniProt P11103); conditions: cortical neuron cultures; cited from earlier work
T1 construct: host or cells: cortical neuron cultures
T1 sequence (P11103 2-1013 limits assumed): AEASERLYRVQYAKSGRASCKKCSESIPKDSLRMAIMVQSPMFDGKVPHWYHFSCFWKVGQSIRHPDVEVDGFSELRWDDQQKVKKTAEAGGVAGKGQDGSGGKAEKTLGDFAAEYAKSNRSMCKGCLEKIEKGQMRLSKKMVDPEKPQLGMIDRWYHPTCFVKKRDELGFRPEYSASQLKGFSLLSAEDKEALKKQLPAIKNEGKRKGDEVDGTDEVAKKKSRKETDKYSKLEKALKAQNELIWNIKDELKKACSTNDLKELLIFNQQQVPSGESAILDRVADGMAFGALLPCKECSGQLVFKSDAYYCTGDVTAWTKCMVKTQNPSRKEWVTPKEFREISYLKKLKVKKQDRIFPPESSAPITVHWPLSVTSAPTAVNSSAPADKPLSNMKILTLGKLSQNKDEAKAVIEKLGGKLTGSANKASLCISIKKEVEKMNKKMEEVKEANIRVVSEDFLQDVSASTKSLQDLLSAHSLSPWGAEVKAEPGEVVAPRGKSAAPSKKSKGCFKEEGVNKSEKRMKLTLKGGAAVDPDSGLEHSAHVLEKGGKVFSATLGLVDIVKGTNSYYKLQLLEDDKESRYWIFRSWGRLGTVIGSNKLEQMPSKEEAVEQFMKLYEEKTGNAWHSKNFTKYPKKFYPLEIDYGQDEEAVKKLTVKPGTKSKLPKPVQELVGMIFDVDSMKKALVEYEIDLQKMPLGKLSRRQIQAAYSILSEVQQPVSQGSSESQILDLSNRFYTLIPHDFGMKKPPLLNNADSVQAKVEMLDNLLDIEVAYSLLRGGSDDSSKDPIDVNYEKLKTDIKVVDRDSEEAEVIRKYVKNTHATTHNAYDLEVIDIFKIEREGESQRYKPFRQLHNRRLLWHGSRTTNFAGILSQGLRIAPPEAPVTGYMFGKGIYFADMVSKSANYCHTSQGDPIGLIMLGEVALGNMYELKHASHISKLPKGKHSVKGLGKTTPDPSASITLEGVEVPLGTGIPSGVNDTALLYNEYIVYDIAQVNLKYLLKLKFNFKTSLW

mice [8] = conditions: chronic administration; cited from earlier work
[9] = Group 3: high fat diet for 16 weeks, TIQ-A 3 mg/kg i.p. three times per week during last 4 weeks
[10] = Group 6: high fat diet for 12 weeks, then regular diet during last 4 weeks with TIQ-A 3 mg/kg i.p. three times per week

O=C1N=C2SCC=C2c2ccccc21 [TIQ-A, thieno[2,3-c]isoquinolin-5-one]
Expression of MCP-1 (RT-PCR) (MCP-1): significantly reduced
IgE production (OVA-specific IgE; TIQ-A after OVA challenge): almost completely blocked
Levels of OVA-specific IgE in BAL fluid (OVA-specific IgE; TIQ-A prior to OVA challenge): moderate reduction
LDL level [1]: significantly lowered
Total cholesterol level [1]: significantly lowered
Expression of the MCP-1 receptor, CCR2 (CCR2): no difference
Eosinophil recruitment into lungs (C57BL/6 mice [2]; TIQ-A 6 mg/kg i.p. prior to OVA-challenge): significantly suppressed
Number of eosinophils in BAL fluids (C57BL/6 mice [2]; post-challenge administration compared with administration prior to challenge): substantially below that seen when the drug was administered prior to challenge
Infiltration of inflammatory cells into the airways (C57BL/6 mice [2]; single TIQ-A i.p. injection one hour or six hours after challenge): greatly reduced
Expression of ICAM-1 (quantitative RT-PCR) (ICAM-1): significantly reduced
Airway hyperresponsiveness to inhaled methacholine (C57BL/6 mice [3]): almost completely blocked
PAS-positive goblet cells in lungs (C57BL/6 mice [4]; TIQ-A one or six hours after challenge): nearly absent
Mucus production (histological mucin index) (C57BL/6 mice [4]; TIQ-A prior to OVA challenge): significantly reduced
Mucus production (histological mucin index) (C57BL/6 mice [4]; post-challenge treatment with TIQ-A): effectively blocked mucus production completely
TNF expression (quantitative RT-PCR) (TNF): significantly down-regulated
Plaque Number (mean ± S.D.) Abdominal Aorta (C57BL/6 ApoE−/− mice [5]; [9]): 5.7 ± 0.94
Plaque Number (mean ± S.D.) Thoracic Aorta (C57BL/6 ApoE−/− mice [5]; [9]): 6.0 ± 1.53
Plaque size (median ± S.D.) Abdominal Aorta (C57BL/6 ApoE−/− mice [5]; [9]): 3.06 ± 0.66 mm^2
Plaque size (median ± S.D.) Thoracic Aorta (C57BL/6 ApoE−/− mice [5]; [9]): 7.18 ± 2.02* mm^2
Plaque number in the abdominal region (in words) (C57BL/6 ApoE−/− mice [5]; Group 6): significant reduction in plaque number
Regression of established plaques, thoracic and abdominal regions of the aorta (C57BL/6 ApoE−/− mice [5]; Group 6): statistically significant regression of established plaques
Plaque Number (mean ± S.D.) Abdominal Aorta (C57BL/6 ApoE−/− mice [5]; [10]): 4.0 ± 1.29
Plaque Number (mean ± S.D.) Thoracic Aorta (C57BL/6 ApoE−/− mice [5]; [10]): 4.20 ± 0.69
Plaque size (median ± S.D.) Abdominal Aorta (C57BL/6 ApoE−/− mice [5]; [10]): 1.96 ± 0.48 mm^2
Plaque size (median ± S.D.) Thoracic Aorta (C57BL/6 ApoE−/− mice [5]; [10]): 5.12 ± 1.68*‡† mm^2
Lesion size in the abdominal region (in words) (C57BL/6 ApoE−/− mice [5]; Group 6, difference not statistically significant): trended lower
CD68 immunoreactivity (C57BL/6 ApoE−/− mice [6]; Group 6): significantly reduced
Collagen density by trichrome staining (C57BL/6 ApoE−/− mice [6]; Group 6): significant increase in collagen density
Fibrous cap by trichrome staining (C57BL/6 ApoE−/− mice [6]; Group 6): much thicker fibrous cap
Foam cells in plaques (C57BL/6 ApoE−/− mice [6]; Group 6): fewer foam cells
Plaque size by microscopic examination (C57BL/6 ApoE−/− mice [6]; Group 6): much smaller
Smooth muscle actin immunoreactivity (C57BL/6 ApoE−/− mice [6]; Group 6): significant increase
MCP-1 immunoreactivity of plaques (C57BL/6 ApoE−/− mice [6]; TIQ-A-treated mice): decrease
Production of IL-4, IL-5 and IL-13 in BAL fluids (IL-4, IL-5 and IL-13): more effectively suppressed by administering TIQ-A after the OVA challenge than before challenge
Eosinophil infiltration and associated mucus production in lung airways (mice [7]): suppressed
Th2 cytokines, including IL-4 IL-5 and IL-13 (mice [7]): suppressed

CN1CCN(Cc2ccc3c(c2)-c2n[nH]c(=O)c4cccc(c24)O3)CC1 [GPI 15427, 10-(4-methyl-piperazin-1-ylmethyl)-2H-7-oxa-1,2-diaza-benzo[de]anthracen-3-one]
Anti-inflammatory effects in gut inflammation (rat): potent anti-inflammatory effects
Accumulation of poly (ADP-ribose) in ileum and colon (rat): diminished

O=C(Oc1cccc2cnccc12)c1ccccc1 [5-benzoyloxyisoquinoline]
Selectivity for the PARP-2 isotype over the PARP-1 isotype (PARP-2): 60 fold

CN1CCN(c2ccc3[nH]c(=O)c4ccccc4c3n2)CC1 [GPI 16539, 2-(4-methyl-piperazin-1-yl)-5H-benzo[c][1,5]naphthyridin-6-one]
Anti-inflammatory effects in gut inflammation (rat): potent anti-inflammatory effects
Accumulation of poly (ADP-ribose) in ileum and colon (rat): diminished

O=C1NCCc2c(OCCCCN3CCCCC3)cccc21 [3,4-dihydro-5-[4-(1-piperidinyl)butoxy]-1(2H)-isoquinolinone]
Induced PARP1 activation (PARP1): inhibited

CN(C)CC(=O)Nc1ccc2[nH]c(=O)c3ccccc3c2c1 [PJ34]
Plaque formation in atherosclerosis (mice [8]): markedly decreased

CN(C)[C@@H]1C(O)=C(C(N)=O)C(=O)[C@@]2(O)C(O)=C3C(=O)c4c(O)ccc(Cl)c4[C@@H](O)[C@H]3C[C@@H]12 [demeclocycline]
Rank order of potency of tetracycline derivatives (PARP1): minocycline>doxycycline>demeclocycline>chlortetracycline
